From publication PMC6423188, “HYNIC and DOMA conjugated radiolabeled bombesin analogs as receptor-targeted probes for scintigraphic detection of breast tumor” (EJNMMI Research, 2019)
Where a SMILES comes first, the peptide text is derived from it.

Columns and labels:
GRPR = target: T1, GRPR (Homo sapiens, UniProt P30550); test: In vitro receptor binding assay, competition with 99mTc-BNS; conditions: unlabeled analogs, radioligand 99mTc-BNS
T1 construct: endogenous in cells; host or cells: MDA-MB-231 human breast cancer cells (from NCCS, Pune)
Method: One day prior to the assay, cells at the confluence were placed in 12-well plates. […] Inhibitory assays were done on GRPR-expressing MDA-MB-231 human breast cancer cells using the standard procedure with modifications. […] After 1-h incubation, cells were washed twice with cold PBS. Receptor bound radioactivity was recovered by solubilizing the cells with 400 μL 1 N NaOH at 37 °C. Binding activities were evaluated in the gamma counter. IC50 (the best-fit 50% inhibitory concentration) values were determined using nonlinear regression.
It may be mentioned that non-radioactive Re complex can be used in place of its unlabeled ligand to determine the binding affinity after complexation reaction. This is being proposed to use the non-radioactive Re complex in place of its unlabeled ligand to determine the binding affinity after complexation in future studies.

MDA-MB-231 cells = test: Western blot analysis; assay type: cell-based, human; conditions: 24 h, BN3, BN4 7.5 and 5 pM, BNS 7.5 pM
Description: After washing in ice-cold PBS, proteins were extracted from cells with lysis buffer containing 100 mmol/L Tris-HCl, pH 8.0, 150 mmol/L NaCl, 1% sodium dodecyl sulfate, 10% glycerol, 1% Triton X, 5 mmol/L ethylenediaminetetraacetic acid, 1 mmol/L phenyl methyl sulfonyl fluoride, 10 mmol/L sodium fluoride, 1 mmol/L sodium orthovanadate, 1 mmol/L-glycerophosphate, and protease inhibitor cocktail tablets (Roche, Switzerland). Total proteins from cell were also extracted by using standard procedure. Protein concentrations were determined by Bradford reagent (BioRad, USA). Extracted proteins were separated by sodium dodecyl sulphate polyacrylamide gel electrophoresis and transferred to polyvinylidene fluoride (PVDF) membranes. Membranes blocking were done by 5% nonfat milk in Tris-buffered saline containing 0.1% polysorbate-20 and incubated with primary antibodies GRPR (Abcam, USA), VEGF, PCNA, Phospho-p38, and HIF-1α (Santa Cruz Biotechnology) for overnight at 4 °C. β-actin antibodies (Millipore) were used to confirm equal protein loading. Detection of primary antibodies was done by alkaline phosphatase conjugated secondary antibodies (1:5000 dilutions) and the detection was done by colorimetry using NBT-BCIP as substrate (Sigma-Aldrich). Detection of GRPR primary antibody was done by horseradish peroxidase conjugated secondary antibodies. The level of β-actin was used as a loading control and was not altered under any of the condition used.

MDA-MB-231 tumor = test: Angiogenic and proliferative markers in tumor (IHC); assay type: in vivo, mouse; conditions: tumor-bearing mice treated i.v. every day for 2 weeks
Method: Tumor-bearing mice were intravenously treated with BN4 peptide at every day for 2 weeks as BN4 has shown the highest affinity and stability to GRP with compare to other analogs. Mice were sacrificed and tumor tissue sections were used for immunohistochemical (IHC) analyses. IHC was performed by the aforementioned methods with the primary antibodies such as anti-CD31 and anti-Ki67 (Abcam, Cambridge, Massachusetts, USA) to determine the expression of angiogenic and proliferative markers in the tumor.

[1] = GRP receptor expressing MDA-MB-231 cells, values printed in Fig. 4
[2] = MDA-MB-231 cells/membranes, 1 h, 37 °C

T1 sequence (P30550 whole entry): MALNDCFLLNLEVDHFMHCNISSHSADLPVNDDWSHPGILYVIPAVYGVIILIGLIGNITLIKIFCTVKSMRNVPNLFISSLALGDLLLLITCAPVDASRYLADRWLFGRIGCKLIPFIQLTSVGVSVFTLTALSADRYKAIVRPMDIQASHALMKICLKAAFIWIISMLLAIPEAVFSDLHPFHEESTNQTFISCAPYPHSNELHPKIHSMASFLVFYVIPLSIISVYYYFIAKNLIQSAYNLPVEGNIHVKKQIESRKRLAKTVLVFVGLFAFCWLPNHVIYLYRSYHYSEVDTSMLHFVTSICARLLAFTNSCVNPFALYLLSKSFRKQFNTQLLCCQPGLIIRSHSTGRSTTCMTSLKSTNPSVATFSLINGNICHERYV

SMILES | IC50 (GRPR; [1]) | IC50 (GRPR; [2]) | level of GRPR (Western blot) (MDA-MB-231 cells) | expression of CD31 and Ki67 in tumor sections (IHC) (MDA-MB-231 tumor)
CCCC[C@H](NC(=O)[C@@H](CC1CCCCC1)NC(=O)[C@H](Cc1c[nH]cn1)NC(=O)[C@H](CCCCN)NC(=O)[C@@H](NC(=O)[C@H](C)NC(=O)[C@H](Cc1c[nH]c2ccccc12)NC(=O)[C@H](CCC(N)=O)NC(=O)[C@H](CC(N)=O)NC(=O)[C@H](CC(=O)O)NC(=O)c1ccc(NN)nc1)C(C)C)C(N)=O [BN3, HYNIC-Asp-Asn-[Lys^5-D-CHAla^13Nle^14]BN(7-14)-NH2] (HELM PEPTIDE1{[NNc1ccc(C(=O)[*:2])cn1].D.N.Q.W.A.V.K.H.[O=C([C@@H](CC1CCCCC1)N[*:1])[*:2]].[Nle].[am]}$$$$V2.0) |  |  | significantly increased level of GRPR | 
CSCC[C@H](NC(=O)[C@H](CC(C)C)NC(=O)[C@H](Cc1c[nH]cn1)NC(=O)CNC(=O)[C@@H](NC(=O)[C@H](C)NC(=O)[C@H](Cc1c[nH]c2ccccc12)NC(=O)[C@@H](N)CCC(N)=O)C(C)C)C(N)=O [BNS, reference compound] |  |  | significantly increased level of GRPR | 

Now from value to molecule, other results behind:

IC50 (GRPR; [1]) | IC50 (GRPR; [2]) | SMILES | level of GRPR (Western blot) (MDA-MB-231 cells) | expression of CD31 and Ki67 in tumor sections (IHC) (MDA-MB-231 tumor)
4.47 nM | 3.96 nM | CCCC[C@H](NC(=O)[C@@H](Cc1ccccc1)NC(=O)[C@H](Cc1c[nH]cn1)NC(=O)CNC(=O)[C@@H](NC(=O)[C@H](C)NC(=O)[C@H](Cc1c[nH]c2ccccc12)NC(=O)[C@H](CCC(N)=O)NC(=O)[C@H](CC(=O)O)NC(=O)c1ccc(NN)nc1)C(C)C)C(N)=O [BN1, HYNIC-Asp-[D-Phe^13Nle^14]BN(7-14)NH2] (HELM PEPTIDE1{[NNc1ccc(C(=O)[*:2])cn1].D.Q.W.A.V.G.H.[dF].[Nle].[am]}$$$$V2.0) |  | 
 | 3.15 nM | CCCC[C@H](NC(=O)[C@@H](Cc1ccc(O)cc1)NC(=O)[C@H](Cc1c[nH]cn1)NC(=O)[C@@H]1CCCN1C(=O)[C@@H](NC(=O)[C@H](C)NC(=O)[C@H](Cc1c[nH]c2ccccc12)NC(=O)[C@H](CCC(N)=O)NC(=O)CCCNC(=O)CN1CCNCCNCCNCC1)C(C)C)C(N)=O [BN4, DOMA-GABA-[Pro^5-D-Tyr^13Nle^14]-BN(7-14)-NH2] (HELM PEPTIDE1{[O=C(CN1CCNCCNCCNCC1)[*:2]].[O=C(CCCN[*:1])[*:2]].Q.W.A.V.P.H.[dY].[Nle].[am]}$$$$V2.0) | significantly increased level of GRPR | enhanced expression of CD31, Ki67
4.63 nM |  | CSCC[C@H](NC(=O)[C@@H](Cc1ccc(O)cc1)NC(=O)[C@H](Cc1c[nH]cn1)NC(=O)CNC(=O)[C@@H](NC(=O)[C@H](C)NC(=O)[C@H](Cc1c[nH]c2ccccc12)NC(=O)[C@H](CCC(N)=O)NC(=O)[C@H](CC(=O)O)NC(=O)[C@@H]1CCCN1C(=O)c1ccc(NN)nc1)C(C)C)C(N)=O [BN2, HYNIC-Pro-Asp-[D-Tyr^13Met^14] BN(7-14)NH2] (HELM PEPTIDE1{[NNc1ccc(C(=O)[*:2])cn1].P.D.Q.W.A.V.G.H.[dY].M.[am]}$$$$V2.0) |  | 
